{"source": "paper PMC11992618", "about": "“Development of cyclopeptide inhibitors specifically disrupting FXR–coactivator interaction in the intestine as a novel therapeutic strategy for MASH” (Life Metabolism, 2025)", "key": {"[1]": {"molecular_target": "T1, human FXR alpha (hFXRα)-LBD / SRC2-3 peptide (Homo sapiens, UniProt Q96RI1)", "T1 construct": "100 nmol/L 6*His-hFXRα-LBD and 100 nmol/L biotinylated co-factor peptide", "T1 sequence (Q96RI1 262-486 limits assumed)": "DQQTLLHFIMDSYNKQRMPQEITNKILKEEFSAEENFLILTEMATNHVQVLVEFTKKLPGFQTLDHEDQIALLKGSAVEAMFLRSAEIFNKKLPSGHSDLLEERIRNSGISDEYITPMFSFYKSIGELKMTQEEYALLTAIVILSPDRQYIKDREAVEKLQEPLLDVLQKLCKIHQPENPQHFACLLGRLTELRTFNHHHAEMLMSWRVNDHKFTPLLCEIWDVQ", "test": "AlphaScreen assay, recruitment of coactivator peptide SRC2-3 to His-hFXRα-LBD", "format": "biochemical", "method": "(§1) An AlphaScreen technology-based assay was performed according to the manufacturer’s instructions with a minor revision. Briefly, the experiment was conducted with compounds at the indicated concentrations, 100 nmol/L 6*His-hFXRα-LBD and 100 nmol/L biotinylated co-factor peptide in the buffer containing 50 mmol/L MOPS, 50 μmol/L CHAPS, 50 mmol/L NaF, and 0.1 mg/mL BSA, pH 7.4. The mixture was incubated with 50 μg/mL nickel acceptor beads and 50 μg/mL streptavidin donor beads in a 384-well plate under green light in the dark at room temperature, before conducting fluorescence measurement with excitation at 680 nm and emission at 550 nm on an Envision microplate analyzer (PE 2102-8340, PerkinElmer Life Sciences)."}, "[2]": {"molecular_target": "T2, human FXR alpha (hFXRα)-LBD / NcoR2 peptide (Homo sapiens, UniProt Q96RI1)", "T2 construct": "100 nmol/L 6*His-hFXRα-LBD and 100 nmol/L biotinylated co-factor peptide", "T2 sequence (Q96RI1 262-486 limits assumed)": "T1 sequence (Q96RI1 262-486 limits assumed)", "test": "AlphaScreen assay, recruitment of corepressor peptide NcoR2 to His-hFXRα-LBD", "format": "biochemical", "settings": "compound alone incubated with His-hFXRα-LBD; read-out: EC50 in recruiting the NcoR2 peptide", "method": "as §1"}, "MCD diet-induced MASH": {"test_system": "MCD diet-induced MASH", "test": "MCD diet-induced MASH mice, long-term model", "format": "in vivo, mouse", "settings": "oral, 4 weeks, DC646 10 mg/kg, GUDCA 50 mg/kg", "method": "For the long-term MASH model, 8- to 10-week-old male C57BL/6 J mice were fed with an MCS diet or MCD diet for 2 weeks, before the MCD models were administered with vehicle or GUDCA (50 mg/kg), OCA (30 mg/kg), and DC646 (10 mg/kg) for 4 weeks. The serum, liver, and intestine were collected 2 h after the final dosing. Male Fxr^△IE mice (8–10 weeks old) were fed with a GAN diet for 20 weeks and administered with vehicle or DC646 (10 mg/kg) from the 12th week for 8 weeks. The serum, liver, and intestine were collected 2 h after the final dosing.\nThe intestine and liver were frozen in liquid nitrogen and stored at −80°C. RNA was extracted, and complementary DNA was synthesized from 1 μg total RNA. RT-qPCR was performed on a Bio-Rad CFX384 Touch detection system (Bio-Rad). The primer sequences for RT-qPCR are shown in Supplementary Table S5. RNA levels were analyzed by 2-^ΔΔCt, normalized to 18S ribosomal RNA and expressed as fold change relative to the control group.\nHepatic TG and TC, and plasma ALT and AST levels were measured using commercial kits from Nanjing Jiancheng Bioengineering Institute according to the manufacturer’s instructions. To measure hepatic TG contents, liver tissues (~10 mg) were homogenized in 100 μL 1% TritonX-100 and centrifuged at 3000 rpm for 10 min. Supernatants were collected, and 2 μL samples were incubated with 200 μL reaction buffer at 37°C for 10 min. Hepatic TG or TC levels were read at 510 or 500 nm using a microplate reader (Versamax, Molecular Devices) and normalized using the protein concentration. To measure plasma ALT and AST levels, reaction buffer 1 and reaction buffer 2 were mixed at a ratio of 1:1, before adding 2 μL plasma sample and 200 μL mixed reaction buffer in a 96-well plate. The data were acquired using the kinetic mode with an interval of 30 s and 31 total reads at 340 nm using a microplate reader (Versamax, Molecular Devices).\nTissue specimens were fixed in 10% formalin for 12–24 h before being dehydrated and paraffin-embedded. The sections were stained with H&E. The NAS was calculated as a summary score including individual components of steatosis (0–3), lobular inflammation (0–3), and hepatocyte ballooning (0–2) for each liver section by a blinded liver pathologist, and the results were reviewed by a blinded hepatologist according to a previous protocol. To visualize liver fibrosis, paraffin-embedded tissue samples were stained with Sirius Red to characterize the collagen deposition. To visualize lipid accumulation and inflammation in the liver, frozen liver sections were stained with Oil Red O and F4/80, and images were acquired using a Leica DM6B laser microdissection system. At least three discontinuous liver sections were evaluated for each mouse."}}, "note": "pEC50: −log10 of the molar value."}
{"compound": "Ivermectin [reference compound]", "values": [{"measurement": "pEC50", "setting": "[1]; compound alone incubated with His-hFXRα-LBD, read-out: EC50 in recruiting the SRC2-3 peptide", "value": 6.02}, {"measurement": "pEC50", "setting": "[2]", "value": 5.66}]}
{"compound": "N,N'-((1^2S,1^4R,14^2S,14^4R,4S,17S)-5,13,18,26-tetraoxo-2^1,15^1-bis(triisopropylsilyl)-2^1H,15^1H-6,19-dioxa-12,25-diaza-1(4,2),14(2,4)-dimorpholina-2,15(4,3)-diindolacyclohexacosaphane-4,17-diyl)bis(1,1,1-trifluoromethanesulfonamide) [DC644]", "values": [{"measurement": "Inhibition of SRC2-3 recruitment in the presence of CDCA (library screen)", "setting": "[1]; DC644 at 10 μmol/L compared with GUDCA and GlyMCA at 50 μmol/L", "value": "more potent"}]}
{"compound": "CC[C@H]1[C@@H](O)[C@@H]2[C@H](CC[C@]3(C)[C@@H]([C@H](C)CCC(=O)O)CC[C@@H]23)[C@@]2(C)CC[C@@H](O)C[C@@H]12", "note": "[OCA, reference compound]", "values": [{"measurement": "Hepatic mRNA levels of lipid metabolism-related genes / hepatic lipid accumulation", "setting": "MCD diet-induced MASH; OCA 30 mg/kg", "value": "markedly downregulated"}, {"measurement": "Serum alanine aminotransferase (ALT) level", "setting": "MCD diet-induced MASH; OCA 30 mg/kg", "value": "cannot improve"}]}
{"compound": "C[C@H](CCC(=O)NCC(=O)O)[C@H]1CC[C@H]2[C@@H]3[C@@H](O)C[C@@H]4C[C@H](O)CC[C@]4(C)[C@H]3CC[C@]12C", "note": "[GUDCA, glycoursodeoxycholic acid, reference compound]", "values": [{"measurement": "Hepatic mRNA levels of inflammation-related genes", "setting": "MCD diet-induced MASH", "value": "significantly decreased"}, {"measurement": "Hepatic mRNA levels of lipid metabolism-related genes / hepatic lipid accumulation", "setting": "MCD diet-induced MASH; OCA 30 mg/kg", "value": "only had minor effect"}]}
